Test results reported in PubChem BioAssay (NCI).
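Dose response: 5 concentrations. Exposure: 48 h. Format: 96-well plates. Endpoint: linear interpolation; highest concentration if not reached. TGI is the concentration that stops growth completely.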

Key:
Test in all cases: NCI tumour cell line growth inhibition, 48 h
HOP-18 NSCLC = tested on: HOP-18 NSCLC
M19-MEL melanoma = tested on: M19-MEL melanoma
HOP-92 NSCLC = tested on: HOP-92 NSCLC
CCRF-CEM leukemia = tested on: CCRF-CEM leukemia
LOX IMVI melanoma = tested on: LOX IMVI melanoma
MALME-3M melanoma = tested on: MALME-3M melanoma
COLO 205 colon = tested on: COLO 205 colon
SK-OV-3 ovarian = tested on: SK-OV-3 ovarian
OVCAR-3 ovarian = tested on: OVCAR-3 ovarian
SF-268 CNS = tested on: SF-268 CNS
SW-620 colon = tested on: SW-620 colon
HCT-116 colon = tested on: HCT-116 colon
TK-10 renal = tested on: TK-10 renal
RXF 393 renal = tested on: RXF 393 renal
LXFL 529 NSCLC = tested on: LXFL 529 NSCLC
HOP-62 NSCLC = tested on: HOP-62 NSCLC
SF-295 CNS = tested on: SF-295 CNS
NCI-H23 lung = tested on: NCI-H23 lung
NCI-H460 lung = tested on: NCI-H460 lung
M14 melanoma = tested on: M14 melanoma

SMILES	TGI (HOP-18 NSCLC)	TGI (M19-MEL melanoma)	TGI (HOP-92 NSCLC)	TGI (CCRF-CEM leukemia)	TGI (LOX IMVI melanoma)	TGI (MALME-3M melanoma)	TGI (COLO 205 colon)	TGI (SK-OV-3 ovarian)	TGI (OVCAR-3 ovarian)	TGI (SF-268 CNS)	TGI (SW-620 colon)	TGI (HCT-116 colon)	TGI (TK-10 renal)	TGI (RXF 393 renal)	TGI (LXFL 529 NSCLC)	TGI (HOP-62 NSCLC)	TGI (SF-295 CNS)	TGI (NCI-H23 lung)	TGI (NCI-H460 lung)	TGI (M14 melanoma)
CCCOC(=O)CCC(NC(=O)c1ccc(Nc2nc3ccccc3nc2-c2cccs2)cc1)C(=O)OCCC (centres undefined)	> 100 µM	> 100 µM	> 100 µM	> 100 µM	> 100 µM	88.9 µM	> 100 µM	> 100 µM	> 100 µM	> 100 µM	> 100 µM	> 100 µM	> 100 µM	> 100 µM	> 100 µM	> 100 µM	> 100 µM	> 100 µM		
CN(C)CCCn1c(-c2ccc(Br)cc2)csc1=Nc1ccccc1			> 100 µM	> 100 µM				40.4 µM	23.3 µM	33.6 µM			31.7 µM	29.8 µM		26.4 µM	25.4 µM	27.8 µM	39.4 µM	32.9 µM
CC/C(CC(=O)CCC(=O)Nc1ccc(C)c(C)c1)=N\NC(=O)c1cc2ccccc2cc1O	88.1 µM	> 100 µM	91.3 µM	> 100 µM	81.1 µM	92.6 µM	> 100 µM	87.3 µM	> 100 µM	> 100 µM	> 100 µM	> 100 µM		66.7 µM	> 100 µM	> 100 µM	> 100 µM	89.4 µM	> 100 µM	42.5 µM
